The target of the assay is T1, DPP-IV from porcine kidneys (Sus scrofa, UniProt P22411).
T1 construct: DPP-IV from porcine kidneys (Sigma, Munich); purchased Sigma, Munich; host or cells: porcine kidney (tissue-derived enzyme)
Kind of assay: Measurement of the DPP-IV activity (fluorimetric conversion of H-Ala-Pro-AFC). The assay is classed as biochemical. The conditions noted are these: at 30 μm compound; DPP-IV 1 mU/ml, H-Ala-Pro-AFC 15 μm, Tris/HCl pH 7.4, room temperature. As for the experimental part: Measurement of the DPP-IV Activity:
DPP-IV from porcine kidneys (Sigma, Munich)
H-Ala-Pro-AFC (Bachem, Weil am Rhein)
DPP-IV (1 mU/ml, end concentration)
H-Ala-Pro-AFC (15 μm end concentration) in Tris/HCl (40 mM, pH 7.4), total volume 0.2 ml
The reaction was performed at room temperature for different periods (typically 10 minutes) and stopped at the end of the reaction by adding 20 μl of ZnCl2 (1 M). The conversion of H-Ala-Pro-AFC was determined fluorimetrically by measuring the emission at 535 nm on excitation at 405 nm. In the case of addition of inhibitors, the buffer volume added was adjusted such that a total volume of the test mixture of 200 μl was maintained.
% inhibition at a fixed concentration was calculated as follows: (1-enzyme activityinhibited reaction/enzyme activityuninhibited reaction)×100

T1 sequence (P22411 whole entry): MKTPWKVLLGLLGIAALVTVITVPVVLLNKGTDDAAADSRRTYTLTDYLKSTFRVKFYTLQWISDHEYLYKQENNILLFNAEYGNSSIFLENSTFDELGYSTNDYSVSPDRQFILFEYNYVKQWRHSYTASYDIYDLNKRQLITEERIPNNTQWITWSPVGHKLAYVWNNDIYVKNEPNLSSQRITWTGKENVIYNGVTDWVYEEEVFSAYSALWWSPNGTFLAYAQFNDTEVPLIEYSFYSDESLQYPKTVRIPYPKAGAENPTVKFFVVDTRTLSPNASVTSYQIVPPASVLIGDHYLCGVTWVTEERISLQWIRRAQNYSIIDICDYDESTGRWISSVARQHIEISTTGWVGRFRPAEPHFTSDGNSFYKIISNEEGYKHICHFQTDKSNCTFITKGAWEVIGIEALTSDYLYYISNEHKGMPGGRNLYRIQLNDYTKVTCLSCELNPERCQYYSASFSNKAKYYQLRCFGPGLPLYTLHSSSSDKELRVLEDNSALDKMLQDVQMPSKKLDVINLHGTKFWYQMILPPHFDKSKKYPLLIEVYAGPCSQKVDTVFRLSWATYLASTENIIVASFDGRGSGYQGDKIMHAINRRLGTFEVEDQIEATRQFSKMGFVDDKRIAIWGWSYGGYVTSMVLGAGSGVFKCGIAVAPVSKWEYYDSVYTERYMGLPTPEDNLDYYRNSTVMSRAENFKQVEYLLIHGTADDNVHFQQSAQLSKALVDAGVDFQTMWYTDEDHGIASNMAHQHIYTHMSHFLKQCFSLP

A word on the % inhibition: it is the drop in the measured response relative to a control, in per cent. For the molecule `CC(C)=CCn1c(N2CCC3CNCC32)nc2ccc(NC(=O)c3ccccc3)cc21` (stereo not shown) [Example 1], the “% inhibition at 30 μm” value stood at 25%.

These data come from US7569700B2, “Substituted, bicyclic 8-pyrrolidinobenzimidazoles, methods for their production and their use as medicaments” (sanofi - aventis, priority 2005, dated 2009).
